Assay results taken from US12023320B2, “Therapeutic agent for fatty liver disease” (EA PHARMA CO., LTD., priority 2020, dated 2024).

Test system: high-fat and high-fructose-induced NASH model (FFD model)
Experiment: high-fat and high-fructose-induced NASH model (fast-food diet model: FFD model), 18 weeks gavage
Assay type: in vivo, C57BL/6J Jms Slc male mice
Conditions: for histopathological findings: Fat formation: large fat droplets, number of mice graded ± (Slight) / histopathological findings: Fat formation: large fat droplets, number of mice graded + (Moderate): 8 mice evaluated; for histopathological findings: Fat formation: large fat droplets, number of mice graded ± (Slight) / histopathological findings: Fibrosis, number of mice graded ± (Slight): Vehicle 3; for histopathological findings: Fat formation: large fat droplets, number of mice graded + (Moderate) / histopathological findings: Fibrosis, number of mice graded + (Moderate): Vehicle 5; for histopathological findings: Fibrosis, number of mice graded ± (Slight) / histopathological findings: Fibrosis, number of mice graded + (Moderate): individuals with liver nodules excluded; for number of CD68-positive hCLS in the liver (inhibitory effect on the increase vs Vehicle group): after 18 weeks of administration (FIG. 5); for liver TG (inhibitory effect on the increase vs Vehicle group): after 18 weeks of administration (FIG. 3)
Description: In the present Examples, using a high-fat and high-fructose-induced NASH model (fast-food diet model: FFD model), the effect of a test drug was evaluated. For the FFD model, refer to BMC Gastroenterol. 2020; 20: 210 and Am J Physiol Gastrointest Liver Physiol. 2013 Oct. 1; 305(7): G483-95. The test drug was prepared by adding hydrochloride of the compound represented by the formula (1) (hereinafter referred to as “compound 1”) to 0.5% MC and sonicating the mixture. 6-week-old C57BL/6J Jms Slc male mice were fed with standard diet (D09100304, Research Diets, Inc.) or FFD diet for pathogenesis (D09100310N, Research Diets, Inc.) for 20 weeks. Then, the mice were grouped as shown in Table 1 based on three indices, i.e., plasma alanine aminotransferase (ALT) levels, body weight, and fasting blood glucose levels. According to the dosage and usage shown in Table 1, the administration substance was gavaged to each group for 18 weeks. [table] ALT was measured by collecting blood from the tail vein after 12 weeks of administration. An autopsy was performed after 18 weeks of administration, and plasma aspartate aminotransferase (AST), plasma total cholesterol (Tcho), and liver triglyceride (TG) were measured. In addition, the Sirius red-positive area and the number of hepatic crown-like structures (hCLS) were measured by liver pathological analysis. Statistical analysis was performed using GraphPad Prism 6 (GraphPad Software, Inc.). For the Normal group and the Vehicle group, t-test or Mann-Whitney's test was performed. For the Vehicle group and the compound 1 group, Dunnett' multiple comparison test or Dunn's multiple comparison test was performed. Any of the test methods was appropriately selected according to the distribution of each parameter. The significance level of all the tests was set to p=0.05. A liver sample was homogenized in a phosphate buffer and extracted with methanol and chloroform overnight. Then, chloroform and distilled water were further added thereto. The mixture was separated by centrifugation, the chloroform layer was collected, and the solvent was dried. The precipitate was dissolved in isopropanol/TritonX-100, and this was used as a measurement sample, the measurement was carried out using Triglyceride E-Test Wako (FUJIFILM Wako Pure Chemical Corporation). The excised liver was fixed in a 10% neutral buffered formalin solution, and embedded in paraffin and Sirius red-stained specimens were prepared according to standard methods. The Sirius red-stained specimen was used to calculate the positive area. The positive area of the Normal group was averaged and used as the background. A CD68 immunostaining specimen (rabbit anti-CD68 polyclonal antibody [ab125212], Abcam) was prepared, and the number of hCLS was counted.

[1] = compound 1 (60) group, 60 mg/kg/day BID

## CC(C)(Cc1ccc(C(=O)Oc2ccc(C(=N)N)cc2F)s1)C(=O)O [compound 1]
10 mg/kg QD
  histopathological findings: Fat formation: large fat droplets, number of mice graded ± (Slight): 4
  histopathological findings: Fat formation: large fat droplets, number of mice graded + (Moderate): 4
  histopathological findings: Fibrosis, number of mice graded ± (Slight): 6
  histopathological findings: Fibrosis, number of mice graded + (Moderate): 2
30 mg/kg QD
  histopathological findings: Fat formation: large fat droplets, number of mice graded ± (Slight): 2
  histopathological findings: Fat formation: large fat droplets, number of mice graded + (Moderate): 6
  histopathological findings: Fibrosis, number of mice graded ± (Slight): 6
  histopathological findings: Fibrosis, number of mice graded + (Moderate): 1
60 mg/kg/day BID
  histopathological findings: Fat formation: large fat droplets, number of mice graded ± (Slight): 7
  histopathological findings: Fat formation: large fat droplets, number of mice graded + (Moderate): 1
  histopathological findings: Fibrosis, number of mice graded ± (Slight): 6
  histopathological findings: Fibrosis, number of mice graded + (Moderate): 2
Compound 1 (10) group, 10 mg/kg QD
  number of CD68-positive hCLS in the liver (inhibitory effect on the increase vs Vehicle group): statistically significant inhibitory effect
Compound 1 (30) group, 30 mg/kg QD
  liver TG (inhibitory effect on the increase vs Vehicle group): statistically significant inhibitory effect
Compound 1 (60) group, 60 mg/kg/day BID, after 12 weeks and 18 weeks of administration (FIG. 1A, 1B)
  plasma ALT (inhibitory effect on the increase vs Vehicle group): statistically significant inhibitory effect
Compound 1 (60) group, 60 mg/kg/day BID, after 18 weeks of administration (FIG. 1C)
  plasma AST (inhibitory effect on the increase vs Vehicle group): statistically significant inhibitory effect
Compound 1 (60) group, 60 mg/kg/day BID, after 18 weeks of administration (FIG. 2)
  plasma Tcho (inhibitory effect on the increase vs Vehicle group): statistically significant inhibitory effect
[1]
  liver TG (inhibitory effect on the increase vs Vehicle group): statistically significant inhibitory effect
  number of CD68-positive hCLS in the liver (inhibitory effect on the increase vs Vehicle group): statistically significant inhibitory effect
Compound 1 (60) group, 60 mg/kg/day BID, after 18 weeks of administration (FIG. 4)
  Sirius red-positive area in the liver (inhibitory effect on the increase vs Vehicle group): statistically significant inhibitory effect
